This note sets out measurements from patent US20160326098A1, “Pharmaceutically Active Compound for Use as Anti-inflammatory Agent” (Pax Forschung GmbH, priority 2013, published 2016).

What all share (assay type): in vivo
Data set [1] has as its system nitrite/nitrate (NOx). As to the kind of experiment: Nitrite/nitrate level in blood, rats with gastric injury without inflammation. The following applies: 1.11 mmol/kg, vs control group H, FIG. 25. Here is the method: The levels of plasma nitrite/nitrate (NOx), stable end products of NO were measured by the Griess reaction. This assay depends on the reduction of nitrate to nitrite, which is then converted into a colored azo dye compound that is detected spectrophotometrically at 540 nm.
Further experiments regarding the effect of a compound of formula (I) and a pharmaceutical composition comprising a compound of formula (I), respectively, on gastric injury without inflammation were conducted on rats. 15 animals were randomly allocated into three groups. Group H (n=5) served as sham-operated controls. Samples of all animals were drawn on day 1 of the clinical tests. On day 2 the animals of group I (n=5) were force-fed acetylsalicylic acid (ASS) (1.11 mmol/kg body weight). Group K (n=5) was force-fed 1.11 mmol/kg body weight of the compound according to the invention. Group H only received the respective solvent (25% ethanol in water). One day after the gavage, additional samples were drawn. Fluorescence confocal endomicroscopy was performed to examine the microvasculature and morphologic changes of the mucosa of the distal colon, and full-thickness tissue samples and venous blood samples were taken to determine the biochemical changes in the colon and plasma. The effects were determined by way of measurement of body weight, blood gas analysation and biopsy. […]

In data set [2] the test system is TNF-α. Nature of the data set: Plasma TNF-α level, rats with TNBS-induced colitis. The following applies: 1.11 mmol/kg, vs untreated colitis group M, FIG. 30. Here is the method: Colonic inflammation was induced by intracolonic administration of TNBS (2,4,6-trinitrobenzenesulfonic acid) (40 mg/kg in 0.25 ml of 25% aqueous ethanol) through an 8-cm-long soft plastic catheter under transient diethylether anesthesia. In the sham-operated groups, only the vehicle for TNBS was administered. The animals were deprived of food, but not water, for 12 h before the enemas.
Plasma TNF-α concentrations were determined in duplicate by means of a commercially available enzyme-linked immunosorbent assay (Quantikine ultrasensitive enzyme-linked immunosorbent assay kit for rat TNF-α; Biomedica Hungaria Kft, Budapest, Hungary). […]
The above-described clinical studies were repeated with animals having colitis which was induced as described above. […] Two days after the enema the effects of the treatment were determined by measurement of body weight, blood gas analysis and biopsy. […] Surgery was performed to allow registration of the hemodynamic parameters at 1 h intervals for 6 h (cardiac output [CO] data were measured only at the end of the experiments). […] In addition, fluorescence confocal endomicroscopy was performed to examine the microvasculature and morphologic changes of the mucosa of the distal colon, and full-thickness tissue samples and venous blood samples were taken to determine the biochemical changes in the colon and plasma.

Data set [3] has as its system collagen-induced arthritis (CIA). Nature of the data set: Collagen-induced arthritis (CIA), clinical evaluation. To be noted: mice, 1.11 mmol/kg force-fed from first immunization until end. How it is done: Further clinical studies were performed with animals having collagen-induced arthritis (CIA). In these studies, mice were used as test animals. At the age of eight weeks, the animals were immunized intradermally at the base of the tail with 50 μl of bovine collagen II emulsified in 50 μl of complete Freund's adjuvant. A second booster immunization was performed 3 weeks later, when 50 μl of incomplete Freund's adjuvant was administered with or without the same volume of collagen H. The animals were randomly allocated into experimental groups wherein group 1 served as control, having no arthritis, group 2 served as second control having arthritis, but receiving no further treatment, and group 3 having arthritis and being treated with compound according to the invention. The animals of group 3 were force-fed 1.11 mmol/kg body weight of the compound according to the invention from the first immunization until the end of the experiments. The severity of CIA was evaluated using a clinical scoring system; inflammatory hyperalgesia was detected with thermal stimulation. […]

Data set [4] has the same test system. Nature of the data set: Collagen-induced arthritis (CIA), thermal stimulation (inflammatory hyperalgesia). To be noted: mice with CIA, 1.11 mmol/kg force-fed, vs untreated arthritis group 2, FIG. 37. Here is the method:
Further clinical studies were performed with animals having collagen-induced arthritis (CIA). In these studies, mice were used as test animals. At the age of eight weeks, the animals were immunized intradermally at the base of the tail with 50 μl of bovine collagen II emulsified in 50 μl of complete Freund's adjuvant. A second booster immunization was performed 3 weeks later, when 50 μl of incomplete Freund's adjuvant was administered with or without the same volume of collagen H. The animals were randomly allocated into experimental groups wherein group 1 served as control, having no arthritis, group 2 served as second control having arthritis, but receiving no further treatment, and group 3 having arthritis and being treated with compound according to the invention. The animals of group 3 were force-fed 1.11 mmol/kg body weight of the compound according to the invention from the first immunization until the end of the experiments. The severity of CIA was evaluated using a clinical scoring system; inflammatory hyperalgesia was detected with thermal stimulation.
The animals were acclimatized to the experimental conditions for 1 hour preceding the test. Then they were placed onto a heating plate set to 40° C. to assess their thermal hypersensitivity. […]

Molecules are shown by their SMILES.

With `CC(=O)Oc1ccccc1C(=O)O` [ASS, acetylsalicylic acid, reference compound], the “nitrite/nitrate level in the blood” value in data set [1] is given as “increased nitrite/nitrate level”.
Turning to `CC(=O)Oc1ccccc1C(=O)NC(CO)(CO)CO` [compound according to the invention], in data set [2], the “plasma TNF-α level” value is given as “significant decrease in the TNF-α level”. In addition, the “severity of CIA (clinical scoring system of Nandakumar)” value in data set [3] (vs untreated arthritis group 2, FIG. 36) was “less serious arthritis”. The “incidence of CIA” value in data set [3] (same in untreated arthritis group 2, FIG. 36) worked out at 90%. The “thermosensitivity (thermal stimulation score, 40° C. heating plate)” value in data set [4] is given as “significantly lower thermosensitivity”.
